According to patent publication US11339171B2, “MDM2 inhibitors” (Gan & Lee Pharmaceuticals, priority 2017, dated 2022):
Where “and” joins values, the source holds several entries; their conditions need not be identical. Equal entries are not always repeated. Where two headings read alike, the source gives them in different places.

Assays:
MDM2 = target: T1, MDM2 (Homo sapiens, UniProt Q00987); test: Inhibition test of MDM2-P53 (GST-MDM2, Biotin-P53, Anti-GST-Tb, SA-XL665); type: binding
T1 construct: made in house
T1 sequence (Q00987 whole entry): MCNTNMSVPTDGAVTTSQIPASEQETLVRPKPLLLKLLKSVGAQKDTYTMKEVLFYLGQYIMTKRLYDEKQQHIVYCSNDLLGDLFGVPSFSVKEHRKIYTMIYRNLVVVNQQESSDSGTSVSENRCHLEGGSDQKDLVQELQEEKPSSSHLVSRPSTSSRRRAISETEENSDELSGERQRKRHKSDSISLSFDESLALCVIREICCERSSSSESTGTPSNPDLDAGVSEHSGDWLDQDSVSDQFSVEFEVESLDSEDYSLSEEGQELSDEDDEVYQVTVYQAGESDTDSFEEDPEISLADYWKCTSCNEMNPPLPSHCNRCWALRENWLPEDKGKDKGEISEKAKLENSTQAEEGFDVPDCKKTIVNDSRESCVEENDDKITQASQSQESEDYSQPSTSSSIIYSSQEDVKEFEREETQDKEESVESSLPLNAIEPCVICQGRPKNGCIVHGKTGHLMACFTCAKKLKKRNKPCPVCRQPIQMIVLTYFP
Method in brief: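 HTRF-type assay using 4 nM GST-MDM2 (final), Biotin-P53, SA-XL665 and anti-GST-Tb in PBS with 0.1% BSA, 5 mM DTT and 1 mM AEBSF. Compounds in 5-fold serial dilutions over twelve points; incubation 90 min at 25° C with shaking before plate-reader read-out.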

[1] = Pharmacokinetics in ICR mice after intravenous and intragastric administration; type: in vivo; conditions: for MRT last: read-out: MRT(0-t); for MRT inf: read-out: MRT(0-∞); for Vd: read-out: Vz
Method in brief: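 Plasma concentrations by LC-MS/MS (range 1 to 2000 ng/ml) following single intravenous (2 mg/kg) or oral gavage (5 mg/kg) dosing of fasted male ICR mice, three per group. Vehicle 5% DMSO + 40% PEG400 + 55% (10% HP-β-CD in saline); standard PK parameters including bioavailability calculated.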

[2] = system: human osteosarcoma cell line SJSA-1; test: Inhibition of proliferation of human osteosarcoma cell line SJSA-1 (DAPI staining, In Cell Analyzer); conditions: Homo sapiens, SJSA-1, 72 h, read-out: IC50 (nM), inhibitory activity on proliferation of human osteosarcoma cell line SJSA-1, SJSA-1, incubated 72 h
[3] = ICR mice, IV 2 mg/kg, individual animal, 2 mg/kg
[4] = ICR mice, PO 5 mg/kg, individual animal, 5 mg/kg
[5] = male, ICR, mouse, plasma, iv, 2 mg/kg, ICR mice, IV 2 mg/kg, individual animal
[6] = male, ICR, mouse, plasma, iv, 2 mg/kg, ICR mice, IV 2 mg/kg, mean of 3 animals
[7] = male, ICR, mouse, plasma, po, 5 mg/kg, ICR mice, PO 5 mg/kg, individual animal
[8] = male, ICR, mouse, plasma, po, 5 mg/kg, ICR mice, PO 5 mg/kg, mean of 3 animals

COc1ncc(-c2nc3c(n2C(C)C)[C@@]2(C(=O)Nc4cc(Cl)ccc42)N(c2cc(F)cc(Cl)c2)C3=O)c(OC)n1 [Example S-45, (S)-6-chloro-5′-(3-chloro-5-fluorophenyl)-2′-(2,4-dimethoxypyrimidin-5-yl)-3′-isopropyl-3′H-spiro[dihydroindole-3,4′-pyrrolo[3,4-d]imidazole]-2,6′(5′H)-dione]
IC50 (MDM2): 1.72 nM | AUC(0-t) [1, 3]: 1865.23 ng·h/mL and 2072.07 ng·h/mL | AUC(0-∞) [1, 3]: 1895.22 ng·h/mL and 2103.04 ng·h/mL | CL [1, 3]: 17.59 mL/min/kg and 15.85 mL/min/kg | Cmax [1, 3]: 779.74 ng/mL and 882.75 ng/mL | MRT(0-t) [1, 3]: 1.36 h | MRT(0-∞) [1, 3]: 1.44 h | Tmax [1, 3]: 0.08 h and 0.25 h | Vz [1, 3]: 1.54 L/kg and 1.37 L/kg | t1/2 [1, 3]: 1.01 h and 1.00 h | AUC(0-t) [1, 4]: 5315.63 ng·h/mL and 4196.04 ng·h/mL | AUC(0-∞) [1, 4]: 5471.40 ng·h/mL and 4431.71 ng·h/mL | Cmax [1, 4]: 1355.63 ng/mL and 1169.32 ng/mL | MRT(0-t) [1, 4]: 2.53 h | MRT(0-∞) [1, 4]: 2.75 h | Tmax [1, 4]: 1.00 h | t1/2 [1, 4]: 1.54 h and 1.87 h | AUC(0-inf) [1, 5]: 1830 ng·h/mL | clearance [1, 5]: 18.3 mL/min/kg | AUC(0-t) ([1]; male, ICR, mouse, plasma, iv, 2 mg/kg, ICR mice, IV 2 mg/kg, individual animal, read-out: AUC(0-t)): 1790 ng·h/mL | Cmax ([1]; male, ICR, mouse, plasma, iv, 2 mg/kg, ICR mice, IV 2 mg/kg, individual animal, read-out: Cmax): 766 ng/mL | MRT last [1, 5]: 1.34 h | MRT inf [1, 5]: 1.45 h | Vd [1, 5]: 1.65 L/kg | half-life ([1]; male, ICR, mouse, plasma, iv, 2 mg/kg, ICR mice, IV 2 mg/kg, individual animal, read-out: t1/2 (converted)): 1.05 h | AUC(0-inf) [1, 6]: 1940 ng·h/mL | clearance [1, 6]: 17.2 mL/min/kg | AUC(0-t) ([1]; male, ICR, mouse, plasma, iv, 2 mg/kg, ICR mice, IV 2 mg/kg, mean of 3 animals, read-out: AUC(0-t)): 19100 ng·h/mL | Cmax ([1]; male, ICR, mouse, plasma, iv, 2 mg/kg, ICR mice, IV 2 mg/kg, mean of 3 animals, read-out: Cmax): 809 ng/mL | MRT last [1, 6]: 1.35 h | MRT inf [1, 6]: 1.45 h | Tmax ([1]; male, ICR, mouse, plasma, iv, 2 mg/kg, ICR mice, IV 2 mg/kg, mean of 3 animals, read-out: Tmax): 0.139 h | Vd [1, 6]: 1.52 L/kg | half-life ([1]; male, ICR, mouse, plasma, iv, 2 mg/kg, ICR mice, IV 2 mg/kg, mean of 3 animals, read-out: t1/2 (converted)): 1.02 h | AUC(0-inf) [1, 7]: 6350 ng·h/mL | AUC(0-t) ([1]; male, ICR, mouse, plasma, po, 5 mg/kg, ICR mice, PO 5 mg/kg, individual animal, read-out: AUC(0-t)): 5860 ng·h/mL | Cmax ([1]; male, ICR, mouse, plasma, po, 5 mg/kg, ICR mice, PO 5 mg/kg, individual animal, read-out: Cmax): 1590 ng/mL | MRT last [1, 7]: 2.56 h | MRT inf [1, 7]: 3.21 h | Tmax ([1]; male, ICR, mouse, plasma, po, 5 mg/kg, ICR mice, PO 5 mg/kg, individual animal, read-out: Tmax): 0.5 h | half-life ([1]; male, ICR, mouse, plasma, po, 5 mg/kg, ICR mice, PO 5 mg/kg, individual animal, read-out: t1/2 (converted)): 2.17 h | AUC(0-inf) [1, 8]: 5420 ng·h/mL | AUC(0-t) ([1]; male, ICR, mouse, plasma, po, 5 mg/kg, ICR mice, PO 5 mg/kg, mean of 3 animals, read-out: AUC(0-t)): 5120 ng·h/mL | Cmax ([1]; male, ICR, mouse, plasma, po, 5 mg/kg, ICR mice, PO 5 mg/kg, mean of 3 animals, read-out: Cmax): 1370 ng/mL | MRT last [1, 8]: 2.55 h | MRT inf [1, 8]: 2.99 h | Tmax ([1]; male, ICR, mouse, plasma, po, 5 mg/kg, ICR mice, PO 5 mg/kg, mean of 3 animals, read-out: Tmax): 0.83 h | half-life ([1]; male, ICR, mouse, plasma, po, 5 mg/kg, ICR mice, PO 5 mg/kg, mean of 3 animals, read-out: t1/2 (converted)): 1.86 h | AUC(0-t) ([1]; male, ICR, mouse, plasma, po, 5 mg/kg, oral intragastric administration 5 mg/kg, read-out: AUC0-t): 5120 ng·h/mL | half-life ([1]; male, ICR, mouse, plasma, po, 5 mg/kg, oral intragastric administration 5 mg/kg, read-out: half-life (converted)): 1.86 h | bioavailability ([1]; male, ICR, mouse, plasma, oral intragastric administration 5 mg/kg, read-out: bioavailability): 107% | bioavailability ([1]; male, mouse, plasma, ICR mice, PO 5 mg/kg vs IV 2 mg/kg, from mean values, read-out: F* (bioavailability)): 107% | IC50 [2]: 6.2 nM
